Data set [1] can be described thus: MALVERN MASTERSIZER 2000 particle size (d10, d50, d90). It counts as physicochemical. As to the method: All particle size (PS) analyses were conducted using a ROTAP Particle Size Analyzer and a MALVERN MASTERSIZER 2000, except as otherwise indicated. All particle size data were measured in microns and analyzed via the MALVERN MASTERSIZER 2000.
Data set [2] can be described thus: HANSON FLODEX powder flowability (viscosity). Type of data set: physicochemical. The source says:
Samples were also subjected to flowability testing using a HANSON FLODEX Powder Flowability tester. The basis for the method is the powders ability to fall freely through a hole in a plate. The diameter of the smallest hole through which the powder passes is considered the flowability index. The flowability index (radius of hole size in cm) along with the bulk density of the material tested are then used to determine the viscosity (internal friction coefficient) of the powder. Lower powder viscosity indicates better flowability.
Samples of the finished lactitol granulations produced during execution of the commercial optimization protocol were also evaluated for flow using the HANSON Intrinsic Flowability Test. During the test, the smallest hole (in millimeters) that the product will flow through is determined in the FLODEX apparatus. Using this information and the bulk density of each powder (as determined in a 250 mL graduated cylinder) the coefficient of friction or viscosity (K) was calculated. The viscosity K (in poises) is equal to 490 (½ the acceleration of gravity) times the radius of the hole in centimeters times the bulk density of the sample. The result K is then multiplied by 100 to express the viscosity in centipoises.

[3] abbreviates: jet mill Grinding Pressure 25 PSI, Feed Injection Pressure 20 PSI.
Where [4] appears, read: jet mill Grinding Pressure 25 PSI, Feed Injection Pressure 40 PSI.
[5] abbreviates: jet mill Grinding Pressure 25 PSI, Feed Injection Pressure 60 PSI.
Where [6] appears, read: jet mill Grinding Pressure 30 PSI, Feed Injection Pressure 20 PSI.
[7] abbreviates: jet mill Grinding Pressure 30 PSI, Feed Injection Pressure 40 PSI.
Setting [8] is: jet mill Grinding Pressure 30 PSI, Feed Injection Pressure 60 PSI.
[9] abbreviates: jet mill Grinding Pressure 35 PSI, Feed Injection Pressure 20 PSI.
Where [10] appears, read: jet mill Grinding Pressure 35 PSI, Feed Injection Pressure 40 PSI.
[11] abbreviates: jet mill Grinding Pressure 35 PSI, Feed Injection Pressure 60 PSI.

Data on 17 molecules can be found in patent US20200170291A1, “PROCESSES FOR PRODUCING LACTITOL GRANULATES AND GRANULATES PRODUCED THEREBY” (PARTICLE DYNAMICS INTERNATIONAL, LLC, priority 2017, published 2020).

Read-outs that look alike come from different tables or passages of the source.

As for `OC[C@@H](O)[C@@H](O[C@@H]1O[C@H](CO)[C@H](O)[C@H](O)[C@H]1O)[C@H](O)[C@@H](O)CO` [Sample 1b], in data set [1], the “PS d10” value worked out at 5.6 μ, the “PS d50” value worked out at 56.7 μ, the “PS d90” value was determined as 420.9 μ and the “Particle Size Span” value stood at 7.3.

Regarding `OC[C@@H](O)[C@@H](O[C@@H]1O[C@H](CO)[C@H](O)[C@H](O)[C@H]1O)[C@H](O)[C@@H](O)CO` [Drum No. 21], in data set [1] (listed as 21), the “PS d10” value stood at 5.0 μ, the “PS d50” value is 50.8 μ, the “PS d90” value amounted to 290.2 μ and the “Particle Size Span” value was determined as 5.6.

With `OC[C@@H](O)[C@@H](O[C@@H]1O[C@H](CO)[C@H](O)[C@H](O)[C@H]1O)[C@H](O)[C@@H](O)CO` [Drum No. 26], in data set [1] (listed as 26), the “PS d10” value amounted to 4.4 μ, the “PS d50” value worked out at 40.8 μ, the “PS d90” value is given as 298.4 μ and the “Particle Size Span” value is reported as 7.2.

Take `OC[C@@H](O)[C@@H](O[C@@H]1O[C@H](CO)[C@H](O)[C@H](O)[C@H]1O)[C@H](O)[C@@H](O)CO` [jet milled lactitol]: the “Particle Size Span” value in data set [1] (setting [3]) was 4.2; in data set [1] (setting [4]), 4.6; in data set [1] (setting [5]) it was 7.2; in data set [1] (setting [6]), 12.7; in data set [1] (setting [7]), 13.7; in data set [1] (setting [8]), 11.1. In addition, the “Particle Size Span” value in data set [1] (setting [9]) was 17.5; in data set [1] (setting [10]), 6.5; in data set [1] (setting [11]), 5.4. Moreover, the “Particle Size d10” value in data set [1] (setting [3]) was 10.8 μ; in data set [1] (setting [4]), 8.5 μ; in data set [1] (setting [5]), 5.5 μ; in data set [1] (setting [6]) it was 4.5 μ; in data set [1] (setting [7]) it was 4.5 μ; in data set [1] (setting [8]), 4.5 μ. Further, the “Particle Size d10” value is recorded as 4.1 μ in data set [1] (setting [9]), 5.8 μ in data set [1] (setting [10]) and 7.6 μ in data set [1] (setting [11]). Moreover, the “Particle Size d50” value is listed as 150.7 μ in data set [1] (setting [3]); 122.9 μ in data set [1] (setting [4]); 84.3 μ in data set [1] (setting [5]); 47.8 μ in data set [1] (setting [6]); 46.3 μ in data set [1] (setting [7]); 45.6 μ in data set [1] (setting [8]). Also, the “Particle Size d50” value in data set [1] (setting [9]) is reported as 36.0 μ; in data set [1] (setting [10]), 83.4 μ; in data set [1] (setting [11]), 110.9 μ. Moreover, the “Particle Size d90” value stood at 646.1 μ in data set [1] (setting [3]); 585.1 μ in data set [1] (setting [4]); 619.5 μ in data set [1] (setting [5]); 615.2 μ in data set [1] (setting [6]); 640.1 μ in data set [1] (setting [7]); 513.0 μ in data set [1] (setting [8]). Moreover, the “Particle Size d90” value in data set [1] (setting [9]) came to 635.0 μ; in data set [1] (setting [10]) it was 548.6 μ; in data set [1] (setting [11]), 611.9 μ. Besides, the “viscosity (flowability)” value in data set [2] is listed as 46,905 cps. In addition, the “viscosity of jet milled lactitol, times higher than raw lactitol” value in data set [2] was “approximately 4.8 times”.

For the molecule `OC[C@@H](O)[C@@H](O[C@@H]1O[C@H](CO)[C@H](O)[C@H](O)[C@H]1O)[C@H](O)[C@@H](O)CO` [Proof of Concept], in data set [1], the “PS d10” value was found to be 5.3 μ, the “PS d50” value worked out at 60.0 μ, the “PS d90” value stood at 316.2 μ and the “Particle Size Span” value is 5.2.

Take `OC[C@@H](O)[C@@H](O[C@@H]1O[C@H](CO)[C@H](O)[C@H](O)[C@H]1O)[C@H](O)[C@@H](O)CO` [Sample 2b]: in data set [1], the “PS d10” value came to 5.5 μ, the “PS d50” value worked out at 56.5 μ, the “PS d90” value is 401.2 μ and the “Particle Size Span” value was 7.0.

Turning to `OC[C@@H](O)[C@@H](O[C@@H]1O[C@H](CO)[C@H](O)[C@H](O)[C@H]1O)[C@H](O)[C@@H](O)CO` [Drum No. 28], in data set [1] (listed as 28), the “PS d10” value is on record as 4.6 μ, the “PS d50” value came to 40.4 μ, the “PS d90” value worked out at 263.7 μ and the “Particle Size Span” value is reported as 6.4.

Consider `OC[C@@H](O)[C@@H](O[C@@H]1O[C@H](CO)[C@H](O)[C@H](O)[C@H]1O)[C@H](O)[C@@H](O)CO` [Drum No. 22], for which, in data set [1] (listed as 22), the “PS d10” value is on record as 4.4 μ, the “PS d50” value came to 36.7 μ, the “PS d90” value is 235.3 μ and the “Particle Size Span” value was 6.3.

For the molecule `OC[C@@H](O)[C@@H](O[C@@H]1O[C@H](CO)[C@H](O)[C@H](O)[C@H]1O)[C@H](O)[C@@H](O)CO` [Drum No. Last], in data set [1] (listed as Last), the “PS d10” value was 4.2 μ, the “PS d50” value turned out to be 39.1 μ, the “PS d90” value amounted to 341.6 μ and the “Particle Size Span” value came to 8.6.

In the case of `OC[C@@H](O)[C@@H](O[C@@H]1O[C@H](CO)[C@H](O)[C@H](O)[C@H]1O)[C@H](O)[C@@H](O)CO` [Drum No. 20], in data set [1] (listed as 20), the “PS d10” value is listed as 4.0 μ, the “PS d50” value stood at 33.8 μ, the “PS d90” value was found to be 209.8 μ and the “Particle Size Span” value was 6.1.

As for `OC[C@@H](O)[C@@H](O[C@@H]1O[C@H](CO)[C@H](O)[C@H](O)[C@H]1O)[C@H](O)[C@@H](O)CO` [Drum No. 27], in data set [1] (listed as 27), the “PS d10” value worked out at 4.2 μ, the “PS d50” value turned out to be 40.2 μ, the “PS d90” value came out at 272.3 μ and the “Particle Size Span” value was “'6.7”.

Turning to `OC[C@@H](O)[C@@H](O[C@@H]1O[C@H](CO)[C@H](O)[C@H](O)[C@H]1O)[C@H](O)[C@@H](O)CO` [Drum No. 29], in data set [1] (listed as 29), the “PS d10” value is listed as 5.7 μ, the “PS d50” value was 84.8 μ, the “PS d90” value is reported as 401.6 μ and the “Particle Size Span” value is given as 4.7.

In the case of `OC[C@@H](O)[C@@H](O[C@@H]1O[C@H](CO)[C@H](O)[C@H](O)[C@H]1O)[C@H](O)[C@@H](O)CO` [Drum No. 37], in data set [1] (listed as 37), the “PS d10” value is 4.4 μ, the “PS d50” value was determined as 43.9 μ, the “PS d90” value turned out to be 337.2 μ and the “Particle Size Span” value was determined as 7.6.

Regarding `OC[C@@H](O)[C@@H](O[C@@H]1O[C@H](CO)[C@H](O)[C@H](O)[C@H]1O)[C@H](O)[C@@H](O)CO` [Drum No. 33], in data set [1] (listed as 33), the “PS d10” value amounted to 4.1 μ, the “PS d50” value is reported as 36.6 μ, the “PS d90” value is on record as 267.6 μ and the “Particle Size Span” value was 7.2.

As to `OC[C@@H](O)[C@@H](O[C@@H]1O[C@H](CO)[C@H](O)[C@H](O)[C@H]1O)[C@H](O)[C@@H](O)CO` [Sample 3b], in data set [1], the “PS d10” value was 7.6 μ, the “PS d50” value was found to be 113.1 μ, the “PS d90” value was 656.4 μ and the “Particle Size Span” value amounted to 5.7.

Consider `OC[C@@H](O)[C@@H](O[C@@H]1O[C@H](CO)[C@H](O)[C@H](O)[C@H]1O)[C@H](O)[C@@H](O)CO` [Drum No. 24], for which, in data set [1] (listed as 24), the “PS d10” value is listed as 5.4 μ, the “PS d50” value is 53.1 μ, the “PS d90” value was determined as 289.0 μ and the “Particle Size Span” value is 5.3.

As to `OC[C@@H](O)[C@@H](O[C@@H]1O[C@H](CO)[C@H](O)[C@H](O)[C@H]1O)[C@H](O)[C@@H](O)CO` [Drum No. 25], in data set [1] (listed as 25), the “PS d10” value is recorded as 4.2 μ, the “PS d50” value amounted to 35.5 μ, the “PS d90” value is listed as 261.8 μ and the “Particle Size Span” value came out at 7.3.
